The results in this text go back to article PMC4993737, “Antibacterial activity identification of pCM19 and pCM12 derived from hGlyrichin” (SpringerPlus, 2016).

One series concerns S. aureus (ATCC 25923). The series is described as follows: Bacteria colony counting method. In kind it is cell-based, Staphylococcus aureus. Conditions: 100 µg peptide, 37 °C 2 h, plated, colonies counted after 12–18 h, n = 5, numbers only in Fig. 1c. Here is the method:
(§1) The antimicrobial activity assays were completed in a specialized laboratory. Red blood cells were collected from healthy adults at the 307 hospital laboratory. All participants gave informed consent to participate in the study.
(§2) Twenty microliters of the culture was diluted in LB (final volume 1 ml) and was evenly coated on an LB plate, inverted and incubated at 37 °C for 12–18 h and then the bacterial colonies were counted.

Series [1] has as its system S. aureus Amp^R (ATCC BAA-44). Description: Bacteria colony counting method. In kind it is cell-based, Staphylococcus aureus. Conditions: 100 µg peptide, 37 °C 2 h, plated, colonies counted after 12–18 h, n = 5, numbers only in Fig. 1d. Here is the method: as §1, §2
The subject of another series is S. Typhi (ATCC 19430). The series is described as follows: Bacteria colony counting method. It is filed as cell-based, Salmonella Typhi. Conditions: 100 µg peptide, 37 °C 2 h, plated, colonies counted after 12–18 h, n = 5, numbers only in Fig. 1e. As for the experimental part:
as §1, §2

Another series deals with E. coli BL21. Description: Bacteria colony counting method. It is filed as cell-based, Escherichia coli. To be noted: 100 µg peptide, 37 °C 2 h, plated, colonies counted after 12–18 h, n = 5, numbers only in Fig. 1a. As for the experimental part: as §1, §2
A further series concerns E. coli BL21 Amp^R. The series is described as follows: Bacteria colony counting method. It is filed as cell-based, Escherichia coli. Conditions: 100 µg peptide, 37 °C 2 h, plated, colonies counted after 12–18 h, n = 5, numbers only in Fig. 1b. Here is the method: as §1, §2
A further series deals with human red blood cells. Description: In vitro hemolysis assay. To be noted: 1 h 37 °C, even at a much higher concentration than the effective antibacterial dose (up to 3000 µg/ml). It is filed as cell-based. As for the experimental part: as §1
Blood samples from healthy donors were treated with heparin to minimize clotting. The blood cell was washed three times with normal saline, and 8 µl samples were diluted to 100 µl in normal saline. The diluted blood cell (100 µl) was incubated with 100 µl of pCM19 (3000 µg/ml) for 1 h at 37 °C; then the same volume diluted blood cell was incubated with 100 µl of pCM12 (100, 200, 500, 1000, 2000, 3000 µg/ml) for 1 h at 37 °C. Centrifugation was carried out at 1000 rpm for 5 min at 4 °C. Each treatment was performed in triplicate. The absorbance of each sample was measured at 570 nm using a microplate reader.

Take “CLRIGMRGREL [pCM11, pCM12 with the last amino acid residue removed]”: the “antibacterial activity by colony counting” value (“antibacterial activity” below) (in the series with S. aureus (ATCC 25923); in series [1]; with S. Typhi (ATCC 19430); in the series with E. coli BL21; with E. coli BL21 Amp^R) was “lost its antibacterial activity” throughout.
In the case of “CLRIGMRGRELM [pCM12, 12 amino acids of pCM19 from which 7 amino acids at the carboxyl terminal were removed]”, the “damage to red cell membranes (hemolysis), in words” value in the series on human red blood cells is on record as “caused no damage to the red cell membranes”. The “antibacterial activity” value in the series on S. aureus (ATCC 25923) was “effectively inhibited the growth”; in series [1], “good inhibition and killing”; with S. Typhi (ATCC 19430), “effectively inhibited the growth”; in the series with E. coli BL21, “effectively inhibited the growth”; in the series on E. coli BL21 Amp^R it was “good inhibition and killing”.
As for “CLRIGMRGRELMGGIGKTM [pCM19, 19 amino acids from positions 42 to 60 of hGlyrichin]”, the “damage to red cell membranes (hemolysis), in words” value in the series on human red blood cells is listed as “caused no damage to the red cell membranes”. The “antibacterial activity” value with S. aureus (ATCC 25923) is “effectively inhibited the growth”; in series [1] it was “good inhibition and killing”; in the series on S. Typhi (ATCC 19430), “effectively inhibited the growth”; in the series with E. coli BL21, “effectively inhibited the growth”; in the series on E. coli BL21 Amp^R it was “good inhibition and killing”.
With “GGIGKTM [flexible peptide, a GIG array, the portion that is different between pCM19 and pCM12]”, the “antibacterial activity” value (in the series with S. aureus (ATCC 25923); in series [1]; in the series with S. Typhi (ATCC 19430); in the series on E. coli BL21; in the series on E. coli BL21 Amp^R) was “almost completely lost the antibacterial activity” in each case.
Turning to “GICRLMMRRGLE [RC, a random array of pCM12]”, the “antibacterial activity” value (in the series with S. aureus (ATCC 25923); in series [1]; with S. Typhi (ATCC 19430); in the series on E. coli BL21; in the series on E. coli BL21 Amp^R) was “almost completely lost its bactericidal activity” throughout.
